{"source": "patent US6958355B2", "about": "“Materials and methods for the treatment of diabetes, hyperlipidemia, hypercholesterolemia, and atherosclerosis” (ARYx Therapeutics, Inc., priority 2000, dated 2005)", "test_system": "NIDDM KK-A^y male mice", "test": "Activity on serum glucose and insulin levels in NIDDM KK-A^y male mice", "format": "in vivo", "settings": "percent reduction relative to pre-treatment values, 10 mg/kg orally, twice a day, 5 consecutive days, blood sampled 90 minutes after the last dose", "excerpt": "Representative compounds were chosen and evaluated for activity on serum glucose and insulin levels in non-insulin dependent diabetic mellitus (NIDDM) KK-A^y male mice. Post-treatment data for each group were transferred to a percentage of pretreatment values and unpaired Student's t test was used for comparison between vehicle and test substance treated groups. […] The results are presented in Table XXI and in FIGS. 19 and 20.\nActivity in NIDDM KK-A^y male mice. Non-insulin dependent diabetic mellitus male mice, weighing 50+/−5 g (9-10 weeks of age) were used. […] The test compounds 105, 115, and 155, and the positive control compound troglitazone were suspended in a 1% carboxymethylcellulose preparation and were given orally at a dose of 10 mg/kg, twice a day, for 5 consecutive days. Blood sampling was performed before the first dose and then 90 minutes after the last dose. Serum glucose and insulin levels were measured."}
{"compound": "Cc1c(C)c2c(c(C)c1O)CCC(C)(COc1ccc(CC3SC(=O)NC3=O)cc1)O2", "note": "(centres unmarked) [Troglitazone, troglitazone]", "values": [{"measurement": "Serum Glucose (%)", "result": 35, "unit": "%"}, {"measurement": "Serum Insulin (%)", "result": 15, "unit": "%"}]}
